According to a melting point compilation (Tetko et al.; mined from patent text by program, amines drawn as free bases though some values may be those of a salt):

Work on `c1cnc2ccc(Cn3nnc4ccc(-c5ccc6[nH]ccc6c5)nc43)cc2c1` yielded a melting point of 120 to 122 °C. Compound `COc1cc(NCCCCCCN2C(=O)c3ccccc3C2=O)c2nccc(C)c2c1` has a melting point of 84 to 85 °C. With `CC(C)S(=O)(=O)n1c(N)nc2ccc(C(=C(Cl)Cl)c3ccccc3)cc21` the melting point was 187 to 188 °C. In the case of `Cc1cc(-n2c(C)ccc2-c2ccc(S(C)(=O)=O)c(F)c2)ccc1-c1cscn1`, the melting point is reported as 179 to 181 °C. Work on `CCCCCCCCn1sc(Cl)c(Cl)c1=O` yielded a melting point of 44 to 47 °C. With `C=C1N(c2cccc3ccccc23)C(=O)OC12CCN(Cc1ccccc1)CC2` the melting point was 130 to 131 °C. Compound `Cc1[nH]n(Cc2ccc(C(=O)O)cc2)c2nc(-c3ccncc3)nc(=O)c1-2` has a melting point greater than 300 °C. In the case of `CN1C(C(=O)Nc2cncc(Cl)n2)=C(O)c2ccc3ccccc3c2S1(=O)=O`, the melting point is reported as 209 to 210 °C. Compound `CS(=O)(=O)Nc1cc2c(cc1Oc1ccc(F)cc1F)C(=O)CC2c1ccccc1` (centres undefined) has a melting point of 101 °C. With `CCCOC(=Nc1sc(Cl)cc1C#N)OCCC` the melting point was 55 to 57 °C. `CCOC(=O)C1=C(N)NC(CF)=C(C(=O)OCC)C1c1cccc([N+](=O)[O-])c1` (centres undefined) gave a melting point of 177 to 178 °C. With `CNC(=O)CCC(=NOCc1ccc(OCc2nc(-c3ccccc3)oc2C)cc1)c1ccccc1` the melting point was 141 to 142 °C. In the case of `Nc1c(OCC(F)(F)F)cc(O)c2c1C(=O)c1ccccc1C2=O`, the melting point is reported as 266 to 268 °C. Compound `CCN(c1nc(C)cc(N2CCSCC2)n1)c1ccc(C(C)C)cc1I` has a melting point of 51 to 53 °C. `N#Cc1cnn2c(-c3ccncc3)ccnc12` showed a melting point of 137 to 138 °C. `CCCCCCCCCOC1C(O)C(CO)OC1n1cnc2c(N)ncnc21` (centres undefined) showed a melting point of 143 to 144 °C. In the case of `COc1cc2[nH]c(SCc3nccc(N4CCOCC4)c3F)nc2cc1C`, the melting point is reported as 124 to 126 °C. Compound `CON=C1COc2cc(OCc3ccccc3N(OC)C(=O)OC)ccc21` has a melting point of 102 to 103 °C. For `CCCCCCOC(=O)Oc1ccc2c(N3CCN(CCCC(=O)c4ccc(F)cc4)CC3)noc2c1`, the melting point was 77 to 80 °C. Work on `CCCCN(C(C)=O)C1CC(C)(C)N(OC(=O)C(C)(C)C)C(C)(C)C1` yielded a melting point of 81 to 94 °C. `CCCCOc1nc2ncnn2c2c1cnc1c2cnn1CC` gave a melting point of 140 to 142 °C. With `Cc1nn(-c2cc3[nH]c(=O)ccc3cc2F)c(=O)n1C(F)F` the melting point was 215 to 217 °C. `NS(=O)(=O)c1ccc(N2N=C(C(F)(F)F)CC2c2c[nH]c3ccccc23)cc1` (centres undefined) gave a melting point of 138 to 140 °C. With `CCOC(=O)Cc1ccc(C(=O)Cl)n1C` the melting point was 52 to 54 °C. `CCOC(=O)Cc1c(C)c2ccc(O)cc2oc1=O` showed a melting point of 167 to 168 °C. `Cc1c(NC(=O)c2cccc(OCC(=O)OC(C)(C)C)c2)c2ccccn2c1C(=O)c1ccc(NC(=O)C(F)(F)F)c(C(=O)OCc2ccccc2)c1` showed a melting point of 200 °C. Compound `Cn1cc(C2=C(c3cn(CCCSC4=NCCS4)c4ccccc34)C(=O)NC2=O)c2ccccc21` has a melting point of 170 to 173 °C. `CC1=NN=C(c2cccc(N)c2)c2cc3c(cc2C1)OCO3` showed a melting point of 190 to 191 °C. `Cc1ccccc1-c1cc(O)ccc1O` showed a melting point of 65 to 68 °C. Work on `COc1ccc2cc(NC(C)=O)c3ccc(C)cc3c2c1OC` yielded a melting point of 190 to 192 °C. Compound `COC(=O)c1ccccc1C(=O)OCC1CN(C(=O)Oc2ccccc2)CCC1c1ccc(F)cc1` (centres undefined) has a melting point of 139 to 141 °C. With `CCC(C#N)Oc1nc2cc(OC)cc(OC)c2cc1-c1ccc(OC)cc1` (centres undefined) the melting point was 89 to 90 °C. `CCCCCCCCCCCCCCCCCC1OCC(COC(O)CCCCC=O)O1` (centres undefined) gave a melting point of 53.6 to 55.7 °C. With `CS(=O)(=O)O[C@H](COCc1ccccc1)[C@@H](COCc1ccccc1)OS(C)(=O)=O` the melting point was 72 to 73 °C. For `CC(C)CNCc1cc2cc(NC(=O)c3ccc(OC[C@@H]4CCCO4)cc3)ccc2n1C`, the melting point was 132 to 133 °C. `CC(=O)NCCCCCCCCCCC(=O)O` gave a melting point of 62 to 65 °C. In the case of `O=C1C2CCCN2C(=O)N1c1ccc([N+](=O)[O-])c2ccccc12` (centres undefined), the melting point is reported as 215 to 217 °C. `CN(C)/C=C1/C(=O)N(C(=O)OC(C)(C)C)C2C3=C(CCCC3(C)C)CC12` (centres undefined) showed a melting point of 170 to 172 °C. `COc1ccc(N2CCN(C)CC2)cc1-c1cn[nH]c1N` showed a melting point of 174 to 178 °C. Compound `CC(C)N1C(=O)NC(c2ccc3c(c2)OCO3)c2cc3c(cc21)OCO3` (centres undefined) has a melting point of 87 to 89 °C. `CCCCCCCCCCCCC1=C(O)C(=O)c2c(C)cccc2C1=O` showed a melting point of 92 to 93 °C. In the case of `CO[C@]1(c2cccc(Sc3ccc4c(ccc(=O)n4C)c3)c2)CCO[C@@H](C)C1`, the melting point is reported as 93 to 96 °C. `CCc1cnc(N2CCN(C(=O)c3ccc(CNc4ncnc5ccccc45)cc3)CC2)nc1` showed a melting point of 170 to 171 °C. `CC(C)(C)C(NC(=O)OCc1ccccc1)C(=O)O` (centres undefined) showed a melting point of 96 to 99 °C. Work on `CCOc1cccc(-c2nc3n(n2)CCc2ccccc2-3)c1` yielded a melting point of 102 to 103 °C. Work on `Cc1ccccc1C(=O)Nc1ccc(C(=O)N2Cc3ccnn3Cc3ccccc32)cc1` yielded a melting point of 142 to 146 °C. Work on `c1ccc(Cn2ccnc2COc2nn3c(-c4ccon4)nnc3c3ccccc23)cc1` yielded a melting point of 198 °C. `Clc1ccc2c(c1)C(c1ccccc1Cl)=NCCN2C1=NCCS1` gave a melting point of 123 to 124 °C. `ClCc1nc2cc(Cl)cc(Cl)c2o1` showed a melting point of 52 to 53 °C. Work on `COC(=O)C(=O)c1sccc1COc1ccccc1` yielded a melting point of 98 to 99 °C. Work on `CCOC(=O)C(NC(=O)c1ncn(Cc2ccccc2)c1[N+](=O)[O-])(OC)C(=O)OCC` yielded a melting point of 126 to 127 °C. `CC(C)C1SC=CNC1=O` (racemic) gave a melting point of 101 to 106 °C. `Nc1ccc(N2CC(O)C2)nc1` gave a melting point of 148 to 150 °C. `O=C(Nc1ccc(Cl)cc1Cl)c1cc(Cl)c(Cl)[nH]1` gave a melting point of 262 to 264 °C. `CCCCOCCOc1ccc(-c2ccc3c(c2)C=C(C(=O)Nc2ccc(S(=O)CCn4cnnc4)cc2)CCN3CC(C)C)cc1` (centres undefined) showed a melting point of 168 to 170 °C. In the case of `CCC(=O)C1=CCC(c2c(C)c(C)c3c(c2Cl)CC(C)(CC)C3)CC1=O` (centres undefined), the melting point is reported as 55 to 57 °C. Compound `CCNC1(c2ccccc2Cl)C(=O)N(Cc2ccc(C(=O)NC(C)(C)CO)cc2)c2ccc(Cl)cc21` (centres undefined) has a melting point of 170 to 172 °C. `Nc1nc(N)nc(C2(c3ccccc3)CCCCC2)n1` gave a melting point of 153 to 155 °C. In the case of `C/C(=C\C(C)O)c1ccc(-c2ccccc2)c(Cl)c1` (centres undefined), the melting point is reported as 86 °C. For `O=c1c2ccccc2nc(-c2sc(Nc3ccccc3)nc2-c2ccccc2)n1-c1ccccc1`, the melting point was 181 to 182 °C. With `CN(C)Cc1nnc2n1-c1ccc(Br)cc1C(c1ccccn1)=NC2` the melting point was 163 to 164 °C. With `CC(=O)Nc1c(C(=O)c2cccc(C)n2)[nH]c2cc(Cl)c(Br)cc12` the melting point was 234 to 236 °C. `CCOC(=O)CC(=O)c1cc(F)c(F)c(Cl)c1Cl` showed a melting point of 52 to 53 °C. Work on `CS(=O)(=O)c1cc(C(=O)O)cc(NCc2ccccc2)c1Cl` yielded a melting point of 254 to 256 °C. In the case of `CCN(CC)CCn1nc2c3c(cccc31)Sc1ccccc1-2`, the melting point is reported as 49 to 50.5 °C. With `Cc1cc(-c2nc3ccc(F)cc3s2)ccc1N` the melting point was 203 to 205 °C. With `COc1cc(C=CC(COc2ccccc2)=NO)ccc1O` the melting point was 155 to 158 °C. `COC(=O)CCCc1nc2[nH]c3ccccc3c2c(=O)[nH]1` showed a melting point of 258 °C. `CC(C)c1ccn2nc(SCc3ccccc3)nc2n1` gave a melting point of 65 to 66 °C. `Cn1cc(-c2cccc(Cl)c2)c(=O)c(-c2ccc(Cl)c(Cl)c2)c1` showed a melting point of 107 to 110 °C. In the case of `CC(C)[C@H](NS(=O)(=O)c1ccc2c(c1)Sc1ccccc1O2)C(=O)O`, the melting point is reported as 171 to 175 °C. Work on `CCOC(=O)OCC1(C)COC(=O)OC1` yielded a melting point of 68 to 69 °C. Work on `COc1ccc(OCC(O)CN2CCN(c3ccccc3C(=O)O)CC2C)c(C(C)(C)C)c1` (centres undefined) yielded a melting point of 205 to 208 °C. With `CCOC(=O)Nc1ccc2nc(S(N)(=O)=O)sc2c1` the melting point was 223 to 224 °C. `CCOc1ccc(-c2nnc(C(N)=O)o2)cc1` gave a melting point of 188 °C. For `CN(C(=O)N1Cc2nc(C(O)c3ccccc3)n(Cc3ccccc3)c2CC1CO)c1ccccc1` (centres undefined), the melting point was 107 to 120 °C. `O=C(Nc1ccc(Cl)cc1)NC1N=C(c2ccccc2)c2ccccc2N(CC(=O)N2CCCC2)C1=O` (centres undefined) showed a melting point of 264 to 266 °C. Work on `CC(C)c1nc(C(C)C)c(CSc2ccc(F)cc2)c(-c2ccc(F)cc2)c1CO` yielded a melting point of 119 to 121 °C. Compound `C=CCN1CCNC1=C[N+](=O)[O-]` has a melting point of 97 to 98 °C. With `c1ccc(-c2cccc(-n3cnc4cc(-n5cccc5)ccc43)c2)nc1` the melting point was 147 to 148 °C. `CC(C)N(C=O)C(=O)c1nc(Cl)c(Cl)[nH]1` showed a melting point of 142 °C. With `CCCc1c(OCCCCCC(=O)c2cc(O)c(O)c(C(C)C)c2)ccc(C(=O)O)c1O` the melting point was 169 to 171 °C. Compound `CCS(=O)(=O)c1ccc(-c2coc3ccc(-c4nnc(C)o4)nc23)cc1` has a melting point of 246 to 247 °C. Compound `CC(C)(C#N)c1cc(C=O)cc(C(C)(C)C#N)c1` has a melting point of 145 to 147 °C. Work on `CCc1nc(C)cn1-c1cc2c(cc1Cl)[nH]c(=O)c1n[nH]c(=O)n12` yielded a melting point of 273 to 275 °C. With `Cc1ccccc1P1(=O)c2ccccc2CN1c1ccccc1` (centres undefined) the melting point was 181 to 183 °C. For `COC(=O)c1ccccc1S(=O)(=O)NCC(=O)Nc1cc(C)on1`, the melting point was 153 to 156 °C. With `COCCNC(=O)c1cc(C(=O)OC)c2cc(Cc3ccc(F)cc3)cnc2c1O` the melting point was 165 to 167 °C. For `COC(=O)NCCOC(=O)C(C)Oc1ccc(OCc2ccccc2)cc1` (centres undefined), the melting point was 79 to 81 °C. For `CCCCc1nc([N+](=O)[O-])c(CO)n1Cc1ccc(-c2ccccc2C(=O)O)cc1`, the melting point was 204 to 206 °C. With `CCCCc1[nH]c2ccc([N+](=O)[O-])cc2c1C(=O)c1ccc(OCCCCl)cc1` the melting point was 125 °C. Work on `N#CN=C(Nc1cccnc1)NC(NC(=O)c1ccc(I)cc1)C(Cl)(Cl)Cl` (centres undefined) yielded a melting point of 208 to 210 °C. `CC(C)C1Cc2cc(C=O)sc2C1` (centres undefined) showed a melting point of less than 50 °C. Work on `CN1C(=O)C(c2ccc(OC(F)F)cc2)(c2ccc(F)c(OCCC=C(F)F)c2)N=C1N` (centres undefined) yielded a melting point of 139 to 140 °C. With `C[C@@H](NC(=O)[C@@H](NC(=O)[C@H](CCCc1ccc(-c2ccccc2)c(Cl)c1)CC(=O)NO)C(C)(C)C)c1ccccc1` the melting point was 107 to 109 °C. Work on `NC(=O)c1cccc(NC(=O)C(F)(F)F)c1` yielded a melting point of 262 to 263 °C. Work on `COc1ccc(NC(=O)Nc2ccc(Cl)c(Cl)c2)cc1N` yielded a melting point of 202 to 204 °C. With `Cc1c(C(=O)OCc2ccc(Cl)cc2)oc2cccc(O)c12` the melting point was 202 to 204 °C. Work on `CC(=O)c1cccc(C(=O)Nc2c[nH]nc2C(=O)NCCC#N)c1` yielded a melting point of 205 to 208 °C.
